According to patent US20240240224A1, “FLUORESCENT D-TYPE AMINO ACID METABOLISM MARKER-BASED METHOD FOR DETECTING ANTIBACTERIAL DRUG SENSITIVITY TEST” (priority 2020, published 2024):
≈ marks a conversion by molar mass, not a printed value. One block for each compound: values may come before it.

Columns and labels:
Ec ATCC 25922 [1] = test: BMD susceptibility test; assay type: cell-based, Escherichia coli; conditions: unit assumed
P. aeruginosa Pa3 [2] = test: BMD susceptibility test; assay type: cell-based, Pseudomonas aeruginosa; conditions: unit assumed
E.coli 1146 [3] = test: FDAA metabolic labeling susceptibility test (Cy5-DAA probe, flow cytometry); assay type: cell-based, Escherichia coli; conditions: Escherichia coli; E.coli 1146; Cy5-DAA probe, 2 hours; read-out: MIC, FDAA
Procedure: (§1) The specific experimental steps are as follows: • 1. Take the colony to be tested that has been cultured overnight on the plate and fully mix it in normal saline to make a uniform bacterial solution. Dilute it into CAMHB medium to make a bacterial solution with OD600=0.05. • 2. Add 45 μl antibiotic solutions to be tested of different concentrations to 96-well plates (see Table 3 for antibiotic concentration gradient settings). • 3. Add 50 μl of bacterial solution prepared in Step 1 to the 96-well plate and mix well. • 4.5 μl of 10 mM Cy5-DAA probe was added to each well (final concentration was 0.15 mM, and its structure was shown in FIG. 1). After mixing, the probe was incubated for 2 hours in the dark. • 5. After dilution with 200 μl PBS solution, the fluorescence intensity of each sample was detected by flow cytometry. The flow detection results are shown in the attached FIG. 4-5, showing the curve of antibiotic concentration gradient and fluorescence intensity, and the MIC (minimum inhibitory concentration) is obtained by referring to this curve.

E.coli 1113 [4] = test: as above; assay type: cell-based, Escherichia coli; conditions: Escherichia coli; E.coli 1113; Cy5-DAA probe, 2 hours; read-out: MIC, FDAA
Procedure: as §1

E.coli 1146 [5] = test: Vitek 2 drug sensitivity test; assay type: cell-based, Escherichia coli; for Sensibility: key: S: Drug sensitive; R: Drug resistance
Pa ATCC 27853 [6] = conditions: cited from earlier work
P. aeruginosa Pa2 [7] = test: BMD susceptibility test; assay type: cell-based, Pseudomonas aeruginosa; conditions: unit assumed
K. pneumoniae Kp6 [8] = test: FaAST (FDAA metabolic labeling); assay type: cell-based, Klebsiella pneumoniae; conditions: unit assumed
Procedure: as §1, with “cytometry.” for “cytometry. The flow detection results are shown in the attached FIG. 4-5, showing the curve of antibiotic concentration gradient and fluorescence intensity, and the MIC (minimum inhibitory concentration) is obtained by referring to this curve.”

A. baumannii Ab19 [9] = test: FaAST (FDAA metabolic labeling); assay type: cell-based, Acinetobacter baumannii; conditions: unit assumed
Procedure: as §1
(§2) Antibiotic resistant strains are shown in bold in the table below.

E. coli Ec11 [10] = test: BMD susceptibility test; assay type: cell-based, Escherichia coli; conditions: unit assumed
E. coli Ec13 [11] = test: BMD susceptibility test; assay type: cell-based, Escherichia coli; conditions: unit assumed
Pa ATCC 27853 [12] = test: BMD susceptibility test; assay type: cell-based, Pseudomonas aeruginosa; conditions: unit assumed
Ec ATCC 25922 [13] = conditions: cited from earlier work
A. baumannii Ab16 [14] = test: FaAST (FDAA metabolic labeling); assay type: cell-based, Acinetobacter baumannii; conditions: unit assumed
Procedure: as §1, with “cytometry.” for “cytometry. The flow detection results are shown in the attached FIG. 4-5, showing the curve of antibiotic concentration gradient and fluorescence intensity, and the MIC (minimum inhibitory concentration) is obtained by referring to this curve.”

A. baumannii Ab16 [15] = test: BMD susceptibility test; assay type: cell-based, Acinetobacter baumannii; conditions: unit assumed
E.coli 1113 [16] = test: Vitek 2 drug sensitivity test; assay type: cell-based, Escherichia coli; for Sensibility: key: S: Drug sensitive; R: Drug resistance
E. coli Ec11 [17] = test: FaAST (FDAA metabolic labeling); assay type: cell-based, Escherichia coli; conditions: unit assumed
Procedure: as §1, §2

Ec ATCC 25922 [18] = test: FaAST (FDAA metabolic labeling); assay type: cell-based, Escherichia coli; conditions: unit assumed
Procedure: as §1, §2

K. pneumoniae Kp6 [19] = test: BMD susceptibility test; assay type: cell-based, Klebsiella pneumoniae; conditions: unit assumed
E. coli Ec13 [20] = test: FaAST (FDAA metabolic labeling); assay type: cell-based, Escherichia coli; conditions: unit assumed
Procedure: as §1, with “cytometry.” for “cytometry. The flow detection results are shown in the attached FIG. 4-5, showing the curve of antibiotic concentration gradient and fluorescence intensity, and the MIC (minimum inhibitory concentration) is obtained by referring to this curve.”

P. aeruginosa Pa2 [21] = test: FaAST (FDAA metabolic labeling); assay type: cell-based, Pseudomonas aeruginosa; conditions: unit assumed
Procedure: as §1, §2

P. aeruginosa Pa3 [22] = test: FaAST (FDAA metabolic labeling); assay type: cell-based, Pseudomonas aeruginosa; conditions: unit assumed
Procedure: as §1, §2

Pa ATCC 27853 [23] = test: FaAST (FDAA metabolic labeling); assay type: cell-based, Pseudomonas aeruginosa; conditions: unit assumed
Procedure: as §1, §2

A. baumannii Ab19 [24] = test: BMD susceptibility test; assay type: cell-based, Acinetobacter baumannii; conditions: unit assumed
S. aureus ST59 [25] = test: Vitek 2 drug sensitivity test; assay type: cell-based, Staphylococcus aureus; for Sensibility: key: S: Drug sensitive; R: Drug resistance
E. faecalis ATCC29212 [26] = test: BMD susceptibility test; assay type: cell-based, Enterococcus faecalis; conditions: unit assumed
S. aureus ATCC29213 [27] = test: BMD susceptibility test; assay type: cell-based, Staphylococcus aureus; conditions: unit assumed
S. aureus ATCC29213 [28] = conditions: cited from earlier work
E. faecalis ATCC29212 [29] = test: FaAST (FDAA metabolic labeling method); assay type: cell-based, Enterococcus faecalis; conditions: unit assumed
Procedure: (§3) Take the colony to be tested that has been cultured overnight on the plate and fully mix it in normal saline to make a uniform bacterial solution. Dilute it into Cation-Adjusted Mueller Hinton Broth (CAMHB) culture medium to make a bacterial solution with OD600=0.05. • 2. Add 45 μl antibiotic solutions of different concentrations to 96-well plates (see Table 1 for antibiotic concentration gradient settings). • 3. Add 50 μl of the bacterial solution prepared in step 1 to the 96-well plate and mix well. • 4. Add 5 μl of 10 mM Cy5-DAA probe (final concentration 0.15 mM, see FIG. 1 for its structure) into each well, mix well, and cultivate in dark for 2 hours. • 5. Add 200 μl After PBS solution is diluted, the fluorescence intensity of each sample is detected by flow cytometry. The flow detection results are shown in FIG. 4-5, showing the curve of the change of antibiotic concentration gradient and fluorescence intensity. The MIC (minimum inhibitory concentration) can be obtained by referring to this curve.
(§4) Bacteria with antibiotic resistance are shown in bold in the following table.

S. aureus Sa23 [30] = test: BMD susceptibility test; assay type: cell-based, Staphylococcus aureus; conditions: unit assumed
S. aureus Sa22 [31] = test: BMD susceptibility test; assay type: cell-based, Staphylococcus aureus; conditions: unit assumed
E. faecalis ATCC29212 [32] = conditions: cited from earlier work
E. faecium Ef28 = test: FaAST (FDAA metabolic labeling method); assay type: cell-based, Enterococcus faecium; conditions: unit assumed
Procedure: as §3, with “The flow detection results are shown in FIG. 4-5, showing the curve of the change of antibiotic concentration gradient and fluorescence intensity.” left out

E. faecium Ef26 [33] = test: BMD susceptibility test; assay type: cell-based, Enterococcus faecium; conditions: unit assumed
S. aureus ST5 [34] = test: Vitek 2 drug sensitivity test; assay type: cell-based, Staphylococcus aureus; for Sensibility: key: S: Drug sensitive; R: Drug resistance
S. aureus ATCC29213 [35] = test: FaAST (FDAA metabolic labeling method); assay type: cell-based, Staphylococcus aureus; conditions: unit assumed
Procedure: as §3, §4

S. aureus Sa22 [36] = test: FaAST (FDAA metabolic labeling method); assay type: cell-based, Staphylococcus aureus; conditions: unit assumed
Procedure: as §3, §4

S. aureus Sa23 [37] = test: FaAST (FDAA metabolic labeling method); assay type: cell-based, Staphylococcus aureus; conditions: unit assumed
Procedure: as §3, §4

S. aureus ST398 [38] = test: Vitek 2 drug sensitivity test; assay type: cell-based, Staphylococcus aureus; for Sensibility: key: S: Drug sensitive; R: Drug resistance
E. faecium Ef26 [39] = test: FaAST (FDAA metabolic labeling method); assay type: cell-based, Enterococcus faecium; conditions: unit assumed
Procedure: as §3, §4

S. aureus ST398 [40] = test: FDAA metabolic labeling susceptibility test (Cy5-DAA probe, flow cytometry); assay type: cell-based; conditions: Staphylococcus aureus, ST398, 2 h, read-out: MIC, FDAA
Procedure: as §3

S. aureus ST5 [41] = test: as above; assay type: cell-based; conditions: Staphylococcus aureus, ST5, 2 h, read-out: MIC, FDAA
Procedure: as §3

S. aureus ST59 [42] = test: as above; assay type: cell-based; conditions: Staphylococcus aureus, ST59, 2 h, read-out: MIC, FDAA
Procedure: as §3

BMD (MIC) (Ec ATCC 25922 [1]): ≤ 0.25 µg/mL | BMD (MIC) (P. aeruginosa Pa3 [2]): 8 µg/mL | MIC (E.coli 1146 [3]): 4 µg/mL (≈ 8.32 µM) | MIC (E.coli 1113 [4]): ≥ 128 µg/mL | MIC (E.coli 1146 [5]; Escherichia coli): ≤ 1 µg/mL | BMD (MIC) (P. aeruginosa Pa2 [7]): 1 µg/mL | FaAST (MIC) (K. pneumoniae Kp6 [8]): 0.5 µg/mL | FaAST (MIC) (A. baumannii Ab19 [9]): 1 µg/mL | BMD (MIC) (E. coli Ec11 [10]): ≤ 0.25 µg/mL | BMD (MIC) (E. coli Ec13 [11]): > 64 µg/mL | BMD (MIC) (Pa ATCC 27853 [12]): 2 µg/mL | FaAST (MIC) (A. baumannii Ab16 [14]): 64 µg/mL | BMD (MIC) (A. baumannii Ab16 [15]): 128 µg/mL | MIC, Vitek 2 (E.coli 1113 [16]): > 64 µg/mL | FaAST (MIC) (E. coli Ec11 [17]): 0.5 µg/mL | FaAST (MIC) (Ec ATCC 25922 [18]): ≤ 0.25 µg/mL | BMD (MIC) (K. pneumoniae Kp6 [19]): ≤ 0.25 µg/mL | FaAST (MIC) (E. coli Ec13 [20]): > 128 µg/mL | FaAST (MIC) (P. aeruginosa Pa2 [21]): 0.5 µg/mL | FaAST (MIC) (P. aeruginosa Pa3 [22]): 4 µg/mL | FaAST (MIC) (Pa ATCC 27853 [23]): 2 µg/mL | BMD (MIC) (A. baumannii Ab19 [24]): 1 µg/mL
SMILES: CO/N=C(\C(=O)N[C@@H]1C(=O)N2C(C(=O)[O-])=C(C[N+]3(C)CCCC3)CS[C@H]12)c1csc(N)n1 [Cefepime, cefepime]
Sensibility (E.coli 1146 [5]): S | CLSI QC range (Pa ATCC 27853 [6]): 0.5-4 | CLSI QC range (Ec ATCC 25922 [13]): 0.016-0.12 | Sensibility (E.coli 1113 [16]): R

SMILES: CN[C@H](CC(C)C)C(=O)N[C@H]1C(=O)N[C@@H](CC(N)=O)C(=O)N[C@H]2C(=O)N[C@H]3C(=O)N[C@H](C(=O)N[C@H](C(=O)O)c4cc(O)cc(O)c4-c4cc3ccc4O)[C@H](O)c3ccc(c(Cl)c3)Oc3cc2cc(c3O[C@@H]2O[C@H](CO)[C@@H](O)[C@H](O)[C@H]2O[C@H]2C[C@](C)(N)[C@H](O)[C@H](C)O2)Oc2ccc(cc2Cl)[C@H]1O [Vancomycin, vancomycin]
Sensibility (S. aureus ST59 [25]): S | MIC (S. aureus ST59 [25]; Staphylococcus aureus): 1 µg/mL (≈ 0.69 µM) | BMD (MIC) (E. faecalis ATCC29212 [26]): 2 µg/mL | BMD (MIC) (S. aureus ATCC29213 [27]): 1 µg/mL | CLSI QC range (S. aureus ATCC29213 [28]): 0.5-2 | FaAST (MIC) (E. faecalis ATCC29212 [29]): 2 µg/mL | BMD (MIC) (S. aureus Sa23 [30]): 1 µg/mL | BMD (MIC) (S. aureus Sa22 [31]): 1 µg/mL | CLSI QC range (E. faecalis ATCC29212 [32]): 1-4 | FaAST (MIC) (E. faecium Ef28): 32 µg/mL | BMD (MIC) (E. faecium Ef26 [33]): 0.5 µg/mL | Sensibility (S. aureus ST5 [34]): S | MIC (S. aureus ST5 [34]; Staphylococcus aureus): 1 µg/mL (≈ 0.69 µM) | FaAST (MIC) (S. aureus ATCC29213 [35]): 1 µg/mL | FaAST (MIC) (S. aureus Sa22 [36]): 2 µg/mL | FaAST (MIC) (S. aureus Sa23 [37]): 2 µg/mL | Sensibility (S. aureus ST398 [38]): S | MIC (S. aureus ST398 [38]; Staphylococcus aureus): ≤ 0.5 µg/mL | FaAST (MIC) (E. faecium Ef26 [39]): 0.25 µg/mL | MIC (S. aureus ST398 [40]): 2 µg/mL (≈ 1.38 µM) | MIC (S. aureus ST5 [41]): 4 µg/mL (≈ 2.76 µM) | MIC (S. aureus ST59 [42]): 2 µg/mL (≈ 1.38 µM)
